Key:
[1] = target: T1, PR (progesterone receptor) (Homo sapiens, UniProt P06401); assay: Relative binding activity (RBA) at PR, progesterone = 100%; conditions: by Kaufmann
T1 sequence (P06401 1-933): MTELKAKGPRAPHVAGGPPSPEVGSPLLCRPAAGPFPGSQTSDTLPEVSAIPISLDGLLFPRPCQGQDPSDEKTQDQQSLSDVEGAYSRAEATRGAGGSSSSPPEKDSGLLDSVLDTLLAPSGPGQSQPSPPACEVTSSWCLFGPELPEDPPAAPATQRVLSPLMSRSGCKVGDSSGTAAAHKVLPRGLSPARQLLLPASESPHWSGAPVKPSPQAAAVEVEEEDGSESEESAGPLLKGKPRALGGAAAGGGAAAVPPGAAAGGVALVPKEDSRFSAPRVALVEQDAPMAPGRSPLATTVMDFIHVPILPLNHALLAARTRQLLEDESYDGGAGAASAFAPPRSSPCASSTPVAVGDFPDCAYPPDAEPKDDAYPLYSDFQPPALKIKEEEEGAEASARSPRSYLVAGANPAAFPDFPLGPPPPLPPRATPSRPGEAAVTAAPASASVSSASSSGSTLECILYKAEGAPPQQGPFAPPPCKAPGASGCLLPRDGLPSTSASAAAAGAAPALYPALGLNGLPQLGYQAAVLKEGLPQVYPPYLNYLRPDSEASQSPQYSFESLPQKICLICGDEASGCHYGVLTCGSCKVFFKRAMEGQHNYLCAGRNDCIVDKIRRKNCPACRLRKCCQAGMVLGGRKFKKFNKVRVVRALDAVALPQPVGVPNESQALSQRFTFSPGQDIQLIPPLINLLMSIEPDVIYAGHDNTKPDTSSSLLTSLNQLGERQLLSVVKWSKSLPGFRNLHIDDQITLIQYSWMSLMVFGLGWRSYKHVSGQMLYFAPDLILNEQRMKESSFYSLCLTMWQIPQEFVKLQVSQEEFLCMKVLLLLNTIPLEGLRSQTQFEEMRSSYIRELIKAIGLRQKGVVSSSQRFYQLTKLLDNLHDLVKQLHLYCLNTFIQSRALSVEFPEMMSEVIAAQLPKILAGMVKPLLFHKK

GR = target: T2, GR (Homo sapiens, UniProt P04150); assay: Relative binding activity (RBA) at GR, dexamethasone = 100%; conditions: by Kaufmann
T2 sequence (P04150 1-777): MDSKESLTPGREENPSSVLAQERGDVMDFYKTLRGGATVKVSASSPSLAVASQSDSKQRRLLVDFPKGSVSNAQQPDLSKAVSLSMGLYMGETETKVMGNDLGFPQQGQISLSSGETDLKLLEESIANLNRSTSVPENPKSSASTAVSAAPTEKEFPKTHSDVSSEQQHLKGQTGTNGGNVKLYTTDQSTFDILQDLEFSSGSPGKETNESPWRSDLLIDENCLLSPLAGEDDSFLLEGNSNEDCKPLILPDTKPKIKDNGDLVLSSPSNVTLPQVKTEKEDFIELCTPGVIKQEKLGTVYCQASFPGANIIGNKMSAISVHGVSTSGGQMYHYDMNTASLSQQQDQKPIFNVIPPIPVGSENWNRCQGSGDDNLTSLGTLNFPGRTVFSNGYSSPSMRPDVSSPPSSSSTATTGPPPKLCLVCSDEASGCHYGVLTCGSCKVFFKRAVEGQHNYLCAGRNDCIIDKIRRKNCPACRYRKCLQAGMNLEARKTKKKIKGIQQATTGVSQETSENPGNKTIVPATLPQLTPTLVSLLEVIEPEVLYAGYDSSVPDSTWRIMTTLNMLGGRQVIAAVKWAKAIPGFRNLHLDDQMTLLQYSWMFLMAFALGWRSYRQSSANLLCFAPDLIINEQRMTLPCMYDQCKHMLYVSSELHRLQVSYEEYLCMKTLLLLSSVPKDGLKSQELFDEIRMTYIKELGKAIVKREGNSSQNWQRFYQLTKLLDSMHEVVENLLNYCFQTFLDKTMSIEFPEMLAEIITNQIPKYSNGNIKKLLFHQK

pregnant rats = assay: Abortifacient activity in pregnant rats; type: in vivo, rat; conditions: s.c.; treatment days 5-7 of pregnancy, autopsy day 9; * SAS, probit procedure
Source text: (§1) The guinea pig is considered as relevant model of human gestation and parturition (Elger W, Fähnrich M, Beier S, Quing S S, Chwalisz K (1987). Endometrial and myometrial effects of progesterone antagonists in pregnant guinea pigs. Am J Obstet Gynecol 157: 1065-1074; Elger W, Neef G, Beier S, Fähnrich M, Gründel M, Heermann J, Malmendier A, Laurent D, Puri C P, Singh M M, Hasan S H, Becker H (1992). Evaluation of antifertility activities of antigestagens in animal model. In: Puri C P and Van Look P F A (eds), Current Concepts in Fertility Regulation and Reproduction. Wiley Eastern Limited, New Delhi, pp. 303-328; Elger W, Faehnrich M, Beier S, Qing S S, Chwalisz K (1986). Mechanism of action of progesterone antagonists in pregnant guinea pigs. Contraception 6: 47-62; Elger W, Chwalisz K, Faehnrich M, Hasan S H, Laurent D, Beier S, Ottow E, Neef G, Garfield R E (1990). Studies on labor-conditioning and labor-inducing effects of antiprogesterones in animal model. In: Garfield R E (eds), Norwell, pp. 153-175.) The mechanism of abortion of antiprogestins in this species is the initiation of labor and finally the expulsion of the conceptus. Abortifacient effects in the rat during very early pregnancy reflect inhibitory effects on nidation rather than initiation of uterine contractions. Studies in the rat model lead to “overestimation” of the potential of antiprogestins to terminate pregnancy in humans. Conversely, in the guinea pig model, irrespective of the antiprogestin doses, there were high rates of ongoing pregnancies similar to the situation in humans (Elger et al., Current Concepts in Fertility Regulation and Reproduction cited above). Furthermore, in both humans and guinea pigs, there is a strong synergism between antiprogestins and prostaglandins with respect the induction of labor (see the articles cited above and Elger W, Beier S (1983). Prostaglandine and Antigestagene für den Schwangerschaftsabbruch (Prostaglandins and antigestagens for pregnancy termination). German Patent DE 3337450 12; Van Look P, Bygdeman M (1989). Antiprogestational steroids: a new dimension in human fertility regulation. Oxford reviews of reproductive medicine 11: 2-60).

pregnant guinea pigs = assay: Abortifacient / labor inducing activity in pregnant guinea pigs; type: in vivo, guinea pig; conditions: for abortifacient activity ED50, guinea pig: s.c., treatment day 43-44 of pregnancy, autopsy day 50; for ranking of abortifacient activity: treated on days 43 and 44 of pregnancy, observed until day 50
Procedure: In the guinea pig model which allows a good prediction of the effects in humans with respect to the abortifacient activity (Elger W, Beier S., Chwalisz K, Fähnrich M, Hasan S H, Henderson D, Neef G, Rohde R (1986): Studies on the mechanism of action of progesterone antagonists. J Steroid Biochem 25: 835-845) the mesoprogestins J 867, J 912, J 956, J 1042 lead up to 100 mg/kg/day to a maximal abortion rate of 20%.
as §1
Pregnant guinea pigs were treated on days 43 and 44 of pregnancy and observed until day 50 of gestation. For the effects of various treatments see table 1 and FIG. 2. It is typical for this model that expulsions occur with a delay of several days after treatment. It can be seen that Mesoprogestins have a much reduced abortifacient activity compared to RU486. […] The differences with respect to abortifacient activity seem qualitative ones. It is not possible to overcome the low abortifacient activity of a Mesoprogestin by the use of a higher dose.
FIG. 2 is graphs showing data on the assessment on cumulative rate of abortion until day 50 in guinea pigs treated on days 43 and 44 of pregnancy.

[2] = as described in DE 43 32 283 / DE 43 32 284; cited from earlier work
[3] = as described in DE 43 32 283 / DE 43 32 284; cited from earlier work; remark: listed apart in the source
cyclic guinea pigs = conditions: cited from earlier work
[4] = target: T3, progesterone receptor (PR) (Oryctolagus cuniculus, UniProt P06186); assay: McPhail test, PR agonistic (progestagenic) activity in estradiol-primed juvenile rabbits; type: in vivo, rabbit; conditions: 4 days s.c. treatment, absence of progesterone
T3 construct: effects of PR-modulators in the uterus of estrogen primed immature rabbits (McPhail test); from tissue; host or cells: uterus (endometrium) of estradiol-primed juvenile rabbits, in vivo
T3 sequence (P06186 1-930): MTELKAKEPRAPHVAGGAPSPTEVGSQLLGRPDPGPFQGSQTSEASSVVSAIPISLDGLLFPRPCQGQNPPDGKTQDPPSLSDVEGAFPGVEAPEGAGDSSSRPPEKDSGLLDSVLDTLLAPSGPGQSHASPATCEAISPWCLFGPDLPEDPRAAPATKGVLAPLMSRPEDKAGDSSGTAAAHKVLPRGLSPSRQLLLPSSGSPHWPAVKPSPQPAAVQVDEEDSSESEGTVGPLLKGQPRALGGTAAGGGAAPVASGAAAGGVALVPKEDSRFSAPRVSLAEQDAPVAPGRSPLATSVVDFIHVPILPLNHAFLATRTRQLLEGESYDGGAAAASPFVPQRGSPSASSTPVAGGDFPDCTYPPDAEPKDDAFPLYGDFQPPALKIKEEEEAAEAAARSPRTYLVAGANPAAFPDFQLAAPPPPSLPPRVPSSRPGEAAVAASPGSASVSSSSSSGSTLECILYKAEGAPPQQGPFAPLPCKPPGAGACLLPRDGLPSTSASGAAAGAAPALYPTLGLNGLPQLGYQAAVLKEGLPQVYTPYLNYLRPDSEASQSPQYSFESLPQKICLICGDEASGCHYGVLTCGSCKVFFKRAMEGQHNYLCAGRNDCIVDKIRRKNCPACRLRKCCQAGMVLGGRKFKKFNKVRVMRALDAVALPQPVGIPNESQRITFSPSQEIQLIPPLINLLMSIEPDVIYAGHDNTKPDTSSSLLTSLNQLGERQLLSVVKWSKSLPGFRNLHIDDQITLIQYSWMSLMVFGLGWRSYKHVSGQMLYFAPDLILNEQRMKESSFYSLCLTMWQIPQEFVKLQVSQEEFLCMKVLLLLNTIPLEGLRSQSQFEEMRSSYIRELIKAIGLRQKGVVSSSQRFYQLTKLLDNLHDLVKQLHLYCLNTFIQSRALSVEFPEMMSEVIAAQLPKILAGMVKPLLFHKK
Procedure: In the classical bioassay, the McPhail test, assessing progestagenic and antiprogestagenic effects in rabbits (Selye H., Textbook of Endocrinology, 1947, pp. 345-346), progesterone produces a maximum McPhail score of 4 (by definition).
(§2) The PR antagonistic and agonistic properties of mesoprogestins were assessed in estrogen-primed rabbits in the McPhail test according to Selye (Textbook of Endocrinology, 1947, pp. 345-346).

[5] = target: T3, progesterone receptor (PR); assay: McPhail test, PR antagonistic (antiprogestagenic) activity in estradiol-primed juvenile rabbits in the presence of progesterone; type: in vivo; conditions: 4 days s.c., in the presence of progesterone 1 mg/rabbit s.c.
Procedure: The capacity of mesoprogestins to antagonize progesterone function is also tested in the McPhail test using a progesterone dose which induces a McPhail score ranging between 3 and 4.
as §2

endometriosis = conditions: women treated with danazol; cited from earlier work
menorrhagia = conditions: women with ovulatory menorrhagia, acute administration during bleeding; cited from earlier work

Compound: COCC1(O)CCC2C3CCC4=CC(=O)CCC4=C3C(c3ccc(C=NO)cc3)CC21C (stereo not drawn) [J912, 4-[17β-Hydroxy-17α-(methoxymethyl)-3-oxoestra-4,9-dien-11β-yl]benzaldehyd-(1E)-oxim]
- RBA (%) PR [1]: 162%
- RBA (%) GR (GR): 16%
- abortifacient activity ED50, rat (pregnant rats): 0.36 mg/animal/day
- abortifacient activity ED50, guinea pig (pregnant guinea pigs): >100 mg/animal/day
- ranking of abortifacient activity (pregnant guinea pigs): RU486>J956>J867, J912>J1042

Compound: CCOC(=O)O/N=C/c1ccc([C@H]2C[C@@]3(C)[C@@H](CC[C@]3(COC)OC)[C@@H]3CCC4=CC(=O)CCC4=C32)cc1 [J 900, 4-[17β-Methoxy-17α-(methoxymethyl)-3-oxoestra-4,9-dien-11β-yl]benzaldehyd-(1E)-[O-(ethoxy)carbonyl]oxim]
- antiprogestagenic activity [2]: strong
- antiglucocorticoid activity compared to RU 486 [3]: markedly reduced
- uterine weights (cyclic guinea pigs): reduced uterine weights

Compound: COC[C@]1(OC)CC[C@H]2[C@@H]3CCC4=CC(=O)CCC4=C3[C@@H](c3ccc(/C=N/OC(C)=O)cc3)C[C@@]21C [J 914, 4-[17β-Methoxy-17α-(methoxymethyl)-3-oxoestra-4,9-dien-11β-yl]benzaldehyd-(1E)-(O-acetyl)oxim]
- antiprogestagenic activity [2]: strong
- antiglucocorticoid activity compared to RU 486 [3]: markedly reduced
- uterine weights (cyclic guinea pigs): reduced uterine weights

Compound: CN(C)c1ccc([C@H]2C[C@]3(C)[C@@H](CC[C@]3(O)CCCO)[C@@H]3CCC4=CC(=O)CCC4=C32)cc1 [Onapristone, reference compound]
- RBA (%) PR [1]: 22%
- RBA (%) GR (GR): 39%
- abortifacient activity ED50, rat (pregnant rats): 1.71* mg/animal/day
- abortifacient activity ED50, guinea pig (pregnant guinea pigs): ca 3 mg/animal/day

Compound: CC(=O)[C@H]1CC[C@H]2[C@@H]3CCC4=CC(=O)CC[C@]4(C)[C@H]3CC[C@]12C [Progesterone]
- dose at which progestagenic effect / endometrial transformation was observed [4]: ≥ 0.1 mg/rabbit
- dose of maximum effect [4]: 1 mg/rabbit
- maximum effect, McPhail score [4]: ~4 McPhail score

Compound: CC#C[C@]1(O)CC[C@H]2[C@@H]3CCC4=CC(=O)CCC4=C3[C@@H](c3ccc(N(C)C)cc3)C[C@@]21C [RU 486, mifepristone, reference compound]
- RBA (%) GR (GR): 685%
- abortifacient activity ED50, rat (pregnant rats): 0.98* mg/animal/day
- abortifacient activity ED50, guinea pig (pregnant guinea pigs): 3.8 mg/animal/day
- ranking of abortifacient activity (pregnant guinea pigs): RU486>J956>J867, J912>J1042
- dose of first antiprogestagenic effect [5]: 0.3-1 mg/rabbit

Compound: C#C[C@]1(O)CC[C@H]2[C@@H]3CCC4=Cc5oncc5C[C@]4(C)[C@H]3CC[C@@]21C [danazol]
- women with side effects (endometriosis): ≤ 85%

Compound: NC[C@H]1CC[C@H](C(=O)O)CC1 [tranexamic acid]
- blood loss reduction (menorrhagia): 45%
